How the values were obtained:
[1] = Solubility testing in polyethylene wax (POLYWAX 655); assay type: physicochemical; conditions: 1 g Solvent Black 3 or 2 g distearyl derivative in 50 g POLYWAX 655, 120° C. oil bath, stirred 3 h, then 1 h without stirring
Method: [drawing 41] molecular weight 892, were compared for solubility in polyethylene wax, a predominant component in phase change inks. 1 g of the Solvent Black 3 and 2 g of the distearyl derivative (because its molecular weight was about twice that of Solvent Black 3) were each dissolved in 50 g portions of POLYWAX 655 (Baker Petrolite) in 100 mL beakers equipped with magnetic stir bars. The solutions were placed in 120° C. oil baths and allowed to stir for 3 h, followed by cessation of stirring for 1 h, after which the solutions were poured into aluminum tins.

[2] = K-proofer print of the wax compositions on paper (darkness of the images as a sign of dissolved dye); assay type: physicochemical; conditions: polyethylene wax compositions of the solubility test applied to paper with RK Print-Coat K-proofer

| SMILES | solubility in polyethylene wax (solids on bottom of beaker) [1] | darkness (optical density) of images versus composition containing Solvent Black 3 [2] |
| --- | --- | --- |
| CC1(C)Nc2cccc3c(/N=N/c4ccc(/N=N/c5ccccc5)c5ccccc45)ccc(c23)N1 [Solvent Black 3, reference compound] | a substantial amount of the Solvent Black 3 appeared on the bottom of its beaker |  |
| CCCCCCCCCCCCCCCCCC1(CCCCCCCCCCCCCCCCC)Nc2cccc3c(/N=N/c4ccc(/N=N/c5ccccc5)c5ccccc45)ccc(c23)N1 [distearyl derivative] | almost no solids appeared on the bottom of the beaker | considerably darker |

Source: US9228097B2, “Phase change inks” (Xerox Corporation, priority 2013, dated 2016)
